Experiments:
[1] = test system: cytokine-treated HEK; assay: Morphology of cytokine-treated HEK; type: cell-based, human; settings: 10 μg/ml; IL17A, IL22 and TNF-alpha
Excerpt: This is in agreement with the Example 3, showing that SBD.SE decreases cellular response to cytokine stimulus (Table 1).

[2] = test system: 3T3 cells; assay: 3T3 Neutral Red phototoxicity (OECD 432); type: cell-based; settings: up to at least 100 μg/ml
Procedure: Phototoxicity is defined as light-activated cytotoxicity. […] The protocol followed in this example was based on the OECD 432 Guidelines. Four 96 well plates were seeded with 3T3 cells (Sigma, St. Louis, Mo.; cat. 93061524-1VL) at 10,000 cells per well in DMEM supplemented with 10% iron-fortified calf serum, and grown overnight in humidified atmosphere at 37° C. in 5% CO2. Serial dilutions of SBD.SE and chlorpromazine (positive control) were added to 2 plates each. […]
[…] Plates were returned to the incubator for 24 h, afterward the medium was removed, cells were rinsed with PBS and placed in Neutral Red medium at 50 μg/ml in which cells were incubated for 3 more hours. Wells were then washed with PBS and Neutral Red was extracted from cells with 1.0% Glacial Acetic Acid/50% Ethanol/49% H2O solution.
Following a 30-minute extraction with mixing, the absorbance of each well was measured at 570 nm with Molecular Devices SpectraMax® microplate spectrophotometer. P values were calculated using two-tailed Student's test and p=0.05 was set as borderline for statistical significance.

Q: `C=C[C@@](C)(/C=C/c1ccc(OC(=O)c2ccccc2O)cc1)CCC=C(C)C` [SBD.SE, Salicylic acid ester of bakuchiol] was tested. Which cytokine-induced morphologic changes [1] did it give?
A: Its cytokine-induced morphologic changes is “prevents these changes”.

Q: What about the “cytotoxicity in absence and presence of UVB light” value [2] of the same compound?
A: Its value is “lack of significant cytotoxicity”.

From patent publication US10471035B2, “Compositions and methods for using esters of meroterpenes and of other resveratrol analogues” (Sunny BioDiscovery, priority 2014, dated 2019)
